# Results published in patent publication US20240400572A1, “COMPOUNDS AND METHODS FOR TREATING CANCERS THAT ARE MGMT DEFICIENT REGARDLESS OF MMR STATUS” (Yale University, priority 2021, published 2024).
# Where “and” joins values, the source holds several entries; their conditions need not be identical. Identical values can stand only once. Like-named read-outs stand apart in the source and are kept apart here.
# Legend:
# [1] = tested on: LN229 MGMT−/MMR+ and MGMT−/MMR− cells; assay: IR alkaline comet assay; format: cell-based, human
# Method: IR Alkaline Comet Assay. Assay was performed utilizing the CometAssay Kit (Trevigen) according to the alkaline assay protocol, with the addition of slide irradiation post-lysis. Cells were trypsinized, washed with 1×PBS, added to melted Comet LMAgarose (Trevigen), and spread on Trevigen CometSlides at a density of 1000 cells per sample in 50 μL. Lysis solution (Trevigen) with 10% DMSO was added overnight at 4° C. Slides were removed from lysis buffer and irradiated to 0 or 10 Gy using an XRAD 320 X-Ray System (Precision X-Ray) at 320 kV, 12.5 mA, and 50.0 cm SSD, with a 2 mm Al filter and 20 cm×20 cm collimator. Slides were then placed in alkaline buffer (200 mM NaOH, 1 mM EDTA) for 45 min, followed by electrophoresis in 850 mL alkaline buffer for 45 min at 4° C. Slides were washed and stained with SYBR gold (Invitrogen) per Trevigen assay protocol. Slides were imaged on a Cytation 3 imaging reader (BioTek), and comets were analyzed using CometScore 2.0 software (TriTek).
# We used a well-established comet assay adapted for ICL detection to determine if ICLs were formed in MGMT− cells treated with KL-50 (4a) (FIG. Z3, A and B). In this assay, cells were sequentially exposed to genotoxins and ionizing radiation, and then analyzed by single cell alkaline gel electrophoresis. Attenuation of the IR-induced comet tail is indicative of ICL formation.
# Brain distribution study = format: in vivo, male C57BL/6 mice; settings: PO 20 mg/kg, male C57BL/6 mice
# Method: Compound KL50 dosing solution: 3.39% DMSO+96.61% (10% HP-β-CD in saline) at 2 mg/mL; • 1) Weigh 17.39 mg of compound KL50 into a clean tube. • 2) Add 0.295 mL DMSO into the tube containing the compound. • 3) Vortex the tube for 3 min and sonicate it for 4 min. • 4) Add 8.400 mL 10% HP-β-CD in saline into the tube and vortex the tube for 3 min. Compound I-1 dosing solution: 3.39% DMSO+96.61% (10% HP-β-CD in saline) at 2 mg/mL; • 1) Weigh 16.86 mg Compound I-1 into a clean tube. • 2) Add 0.286 mL DMSO into the tube containing the compound. • 3) Vortex the tube for 3 min and sonicate it for 4 min. • 4) Add 8.144 mL 10% HP-β-CD in saline into the tube and vortex the tube for 3 min.
# The in-vivo pharmacokinetic and brain distribution study was conducted under the following parameters. Twenty seven C57BL/6 male mice were purchased from Shanghai JiHui Laboratory Animal Co. LTD. Each mouse weighted from 16 g to 17 g. The mice were fasted overnight and fed post 4 hr sampling. Compound KL50 and Compound I-I were administered via oral gavage (PO) at a dose of 20 mg/kg (10 mL/kg). After dosing, sampling was completed at 0.083, 0.167, 0.333, 0.5, 0.75, 1, 2, 4 and 8 hr post dose, with three mice sacrificed at each time point.
# Terminal bleeding for plasma and brain was completed at each time point. Approximately 110 μL blood per time point was collected into a K2EDTA tube via the facial vein. The blood sample was put on wet ice and centrifuged to obtain plasma sample (2000 g, 5 min under 4° C.) within 15 minutes. Plasma samples were acidified with 6 μL of formic acid for every 54 μL of plasma. After blood collection, a mid-line incision was made in the animal's scalp and the skin was retracted. The skull overlying the brain was removed. Then, the whole brain was collected, rinsed with cold saline, dried on filtrate paper, and weighed; and then snap frozen by placing the brain into dry-ice. Plasma samples were stored at approximately −70° C. until analysis. Brain tissue was homogenized with 3 volumes (v/w) of PBS (1% FA) and then analyzed with LC-MS/MS. The concentration of study drug was corrected with a dilution factor of four as following: Brain concentration=brain homogenate conc.×4, assuming 1 g wet brain tissue equals to 1 mL
compound,measurement,setting,value
"NC(=O)c1ncn2c(=O)n(CCF)nnc12 [KL-50, 3-(2-fluoroethyl)-4-oxo-3H,4H-imidazo[4,3-d][1,2,3,5]tetrazine-8-carboxamide]","effect on IR-induced comet tail, ICL detection (in words)","[1]; MGMT−/MMR+ cells, 200 μM for 24 h, 10 Gy",reduced the % DNA in the tail to levels similar to those seen for 0.1 μM MMC
same,comet tailing in the absence of IR (in words),"[1]; MGMT−/MMR+ cells, TMZ and KL-50 200 μM, MMC 0.1 or 50 μM",induced tailing
same,DNA damage in unirradiated samples (in words),"[1]; MGMT−/MMR− cells, 200 μM, 2, 8 or 24 h, 0 Gy","induced maximal damage at 2 h, which decreased over time"
same,"rate of ICL formation, DNA mobility after IR (in words)","[1]; MGMT−/MMR− cells, 200 μM, 2, 8 or 24 h, 10 Gy",time-dependent decrease in DNA mobility
same,"Brain Concentration/Plasma Concentration, Individuals","Brain distribution study; 0.083 hr, 20 mg/kg",0.0770 and 0.0693
same,"brain Concentration, Individuals","Brain distribution study; 0.083 hr, 20 mg/kg",1970 ng/g and 1940 ng/g
same,"Brain Concentration/Plasma Concentration, Individuals","Brain distribution study; 0.167 hr, 20 mg/kg",0.123 and 0.156
same,"brain Concentration, Individuals","Brain distribution study; 0.167 hr, 20 mg/kg",2810 ng/g and 2820 ng/g
same,"Brain Concentration/Plasma Concentration, Individuals","Brain distribution study; 0.333 hr, 20 mg/kg",0.206 and 0.213
same,"brain Concentration, Individuals","Brain distribution study; 0.333 hr, 20 mg/kg",2980 ng/g and 4450 ng/g
same,"Brain Concentration/Plasma Concentration, Individuals","Brain distribution study; 0.5 hr, 20 mg/kg",0.260 and 0.250
same,"brain Concentration, Individuals","Brain distribution study; 0.5 hr, 20 mg/kg",3230 ng/g and 3830 ng/g
same,"Brain Concentration/Plasma Concentration, Individuals","Brain distribution study; 0.75 hr, 20 mg/kg",0.278 and 0.331
same,"brain Concentration, Individuals","Brain distribution study; 0.75 hr, 20 mg/kg",3060 ng/g and 3380 ng/g
same,"Brain Concentration/Plasma Concentration, Individuals","Brain distribution study; 1 hr, 20 mg/kg",0.345 and 0.266
same,"brain Concentration, Individuals","Brain distribution study; 1 hr, 20 mg/kg",2530 ng/g and 3270 ng/g
same,"Brain Concentration/Plasma Concentration, Individuals","Brain distribution study; 2 hr, 20 mg/kg",0.347 and 0.335
same,"brain Concentration, Individuals","Brain distribution study; 2 hr, 20 mg/kg",953 ng/g and 1530 ng/g
same,"Brain Concentration/Plasma Concentration, Individuals","Brain distribution study; 4 hr, 20 mg/kg",0.269 and 0.250
same,"brain Concentration, Individuals","Brain distribution study; 4 hr, 20 mg/kg",184 ng/g and 427 ng/g and 199 ng/g
same,"Brain Concentration/Plasma Concentration, Individuals","Brain distribution study; 8 hr, 20 mg/kg",0.175 and 0.244
same,"brain Concentration, Individuals","Brain distribution study; 8 hr, 20 mg/kg",85.3 ng/g and 18.2 ng/g and 45.2 ng/g
same,AUCINF,Brain distribution study; brain,7213 ng·h/g
same,AUClast,Brain distribution study; brain,7128 ng·h/g
same,concentration at 0.083 hr,"Brain distribution study; male, C57BL/6, mouse, brain, po, 20 mg/kg, 0.083 hr, N=3, read-out: brain Concentration, Mean",1820 ng/g
same,concentration at 0.083 hr,"Brain distribution study; male, C57BL/6, mouse, brain, po, 20 mg/kg, 0.083 hr, read-out: brain Concentration, Individuals",1540 ng/g
same,concentration at 0.167 hr,"Brain distribution study; male, C57BL/6, mouse, brain, po, 20 mg/kg, 0.167 hr, N=3, read-out: brain Concentration, Mean",2940 ng/g
same,concentration at 0.167 hr,"Brain distribution study; male, C57BL/6, mouse, brain, po, 20 mg/kg, 0.167 hr, read-out: brain Concentration, Individuals",3180 ng/g
same,concentration at 0.333 hr,"Brain distribution study; male, C57BL/6, mouse, brain, po, 20 mg/kg, 0.333 hr, N=3, read-out: brain Concentration, Mean",3690 ng/g
same,concentration at 0.333 hr,"Brain distribution study; male, C57BL/6, mouse, brain, po, 20 mg/kg, 0.333 hr, read-out: brain Concentration, Individuals",3630 ng/g
same,concentration at 0.5 hr,"Brain distribution study; male, C57BL/6, mouse, brain, po, 20 mg/kg, 0.5 hr, N=3, read-out: brain Concentration, Mean",3600 ng/g
same,concentration at 0.5 hr,"Brain distribution study; male, C57BL/6, mouse, brain, po, 20 mg/kg, 0.5 hr, read-out: brain Concentration, Individuals",3730 ng/g
same,concentration at 0.75 hr,"Brain distribution study; male, C57BL/6, mouse, brain, po, 20 mg/kg, 0.75 hr, N=3, read-out: brain Concentration, Mean",3250 ng/g
same,concentration at 0.75 hr,"Brain distribution study; male, C57BL/6, mouse, brain, po, 20 mg/kg, 0.75 hr, read-out: brain Concentration, Individuals",3300 ng/g
same,concentration at 1 hr,"Brain distribution study; male, C57BL/6, mouse, brain, po, 20 mg/kg, 1 hr, N=3, read-out: brain Concentration, Mean",2910 ng/g
same,concentration at 1 hr,"Brain distribution study; male, C57BL/6, mouse, brain, po, 20 mg/kg, 1 hr, read-out: brain Concentration, Individuals",2920 ng/g
same,concentration at 2 hr,"Brain distribution study; male, C57BL/6, mouse, brain, po, 20 mg/kg, 2 hr, N=3, read-out: brain Concentration, Mean",1140 ng/g
same,concentration at 2 hr,"Brain distribution study; male, C57BL/6, mouse, brain, po, 20 mg/kg, 2 hr, read-out: brain Concentration, Individuals",934 ng/g
same,concentration at 4 hr,"Brain distribution study; male, C57BL/6, mouse, brain, po, 20 mg/kg, 4 hr, N=3",270 ng/g
same,concentration at 8 hr,"Brain distribution study; male, C57BL/6, mouse, brain, po, 20 mg/kg, 8 hr, N=3",49.6 ng/g
same,Kp,"Brain distribution study; male, C57BL/6, mouse, brain/plasma, po, 20 mg/kg, AUCbrain/AUCplasma, heading: AUCbrain/AUCplasma",25.1%
same,Kp at 0.083 hr,"Brain distribution study; male, C57BL/6, mouse, brain/plasma, po, 20 mg/kg, 0.083 hr, N=3, read-out: Brain Concentration/Plasma Concentration, Mean",0.0718
same,Kp at 0.083 hr,"Brain distribution study; male, C57BL/6, mouse, brain/plasma, po, 20 mg/kg, 0.083 hr, read-out: Brain Concentration/Plasma Concentration, Individuals",0.0691
same,Kp at 0.167 hr,"Brain distribution study; male, C57BL/6, mouse, brain/plasma, po, 20 mg/kg, 0.167 hr, N=3, read-out: Brain Concentration/Plasma Concentration, Mean",0.136
same,Kp at 0.167 hr,"Brain distribution study; male, C57BL/6, mouse, brain/plasma, po, 20 mg/kg, 0.167 hr, read-out: Brain Concentration/Plasma Concentration, Individuals",0.13
same,Kp at 0.333 hr,"Brain distribution study; male, C57BL/6, mouse, brain/plasma, po, 20 mg/kg, 0.333 hr, N=3, read-out: Brain Concentration/Plasma Concentration, Mean",0.203
same,Kp at 0.333 hr,"Brain distribution study; male, C57BL/6, mouse, brain/plasma, po, 20 mg/kg, 0.333 hr, read-out: Brain Concentration/Plasma Concentration, Individuals",0.191
same,Kp at 0.5 hr,"Brain distribution study; male, C57BL/6, mouse, brain/plasma, po, 20 mg/kg, 0.5 hr, N=3, read-out: Brain Concentration/Plasma Concentration, Mean",0.257
same,Kp at 0.5 hr,"Brain distribution study; male, C57BL/6, mouse, brain/plasma, po, 20 mg/kg, 0.5 hr, read-out: Brain Concentration/Plasma Concentration, Individuals",0.259
same,Kp at 0.75 hr,"Brain distribution study; male, C57BL/6, mouse, brain/plasma, po, 20 mg/kg, 0.75 hr, N=3, read-out: Brain Concentration/Plasma Concentration, Mean",0.318
same,Kp at 0.75 hr,"Brain distribution study; male, C57BL/6, mouse, brain/plasma, po, 20 mg/kg, 0.75 hr, read-out: Brain Concentration/Plasma Concentration, Individuals",0.344
same,Kp at 1 hr,"Brain distribution study; male, C57BL/6, mouse, brain/plasma, po, 20 mg/kg, 1 hr, N=3, read-out: Brain Concentration/Plasma Concentration, Mean",0.296
same,Kp at 1 hr,"Brain distribution study; male, C57BL/6, mouse, brain/plasma, po, 20 mg/kg, 1 hr, read-out: Brain Concentration/Plasma Concentration, Individuals",0.278
same,Kp at 2 hr,"Brain distribution study; male, C57BL/6, mouse, brain/plasma, po, 20 mg/kg, 2 hr, N=3, read-out: Brain Concentration/Plasma Concentration, Mean",0.348
same,Kp at 2 hr,"Brain distribution study; male, C57BL/6, mouse, brain/plasma, po, 20 mg/kg, 2 hr, read-out: Brain Concentration/Plasma Concentration, Individuals",0.362
same,Kp at 4 hr,"Brain distribution study; male, C57BL/6, mouse, brain/plasma, po, 20 mg/kg, 4 hr, N=3, read-out: Brain Concentration/Plasma Concentration, Mean",0.231
same,Kp at 4 hr,"Brain distribution study; male, C57BL/6, mouse, brain/plasma, po, 20 mg/kg, 4 hr, read-out: Brain Concentration/Plasma Concentration, Individuals",0.174
same,Kp at 8 hr,"Brain distribution study; male, C57BL/6, mouse, brain/plasma, po, 20 mg/kg, 8 hr, N=3, read-out: Brain Concentration/Plasma Concentration, Mean",0.233
same,Kp at 8 hr,"Brain distribution study; male, C57BL/6, mouse, brain/plasma, po, 20 mg/kg, 8 hr, read-out: Brain Concentration/Plasma Concentration, Individuals",0.28
same,Cmax,"Brain distribution study; mouse, brain",3690 ng/g
same,MRT inf,"Brain distribution study; mouse, brain",1.57 h
same,Tmax,"Brain distribution study; mouse, brain",0.333 h
same,half-life,"Brain distribution study; mouse, brain",1.18 h
